In US20090069565A1, “NEW INDOLE DERIVATIVES AS FACTOR XA INHIBITORS” (priority 2001, published 2009) one finds Ki data, which are given here for 28 molecules.

Structures are written as SMILES. Where two headings read alike, the source gives them in different places.

The target in this experiment is human factor Xa (Homo sapiens, UniProt P00742). The experiment can be described thus: Factor Xa assay (chromogenic, substrate S-2765).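 Further: purified enzyme preincubated with inhibitor for 10 min before substrate addition, final reaction volume 100 µl.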 It counts as biochemical. The note with it: read-out: Ki(FXa).
Setting [1] is: inhibition constant for factor Xa, purified enzyme 0.5 nM, substrate S-2765 140 μM, 25° C., pH 7.8, Ki=IC50/{1+(substrate concentration/Km)}.

The term Ki denotes the dissociation constant of the complex between target and ligand, obtained from inhibition or displacement.

Chain of human factor Xa (P00742 235-488 limits assumed): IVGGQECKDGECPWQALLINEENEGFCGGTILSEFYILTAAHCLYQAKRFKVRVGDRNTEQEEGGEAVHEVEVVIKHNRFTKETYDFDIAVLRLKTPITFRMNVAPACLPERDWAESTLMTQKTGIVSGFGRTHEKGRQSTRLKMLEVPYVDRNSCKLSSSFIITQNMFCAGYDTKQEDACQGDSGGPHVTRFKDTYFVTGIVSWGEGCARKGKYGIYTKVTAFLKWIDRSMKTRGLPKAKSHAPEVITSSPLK
Chain of human factor Xa (P00742 41-179 partner limits assumed): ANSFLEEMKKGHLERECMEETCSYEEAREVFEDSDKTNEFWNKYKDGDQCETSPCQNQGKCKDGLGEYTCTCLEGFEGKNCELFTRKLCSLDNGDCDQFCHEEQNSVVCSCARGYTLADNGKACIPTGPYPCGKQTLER

Take `CCOC(=O)CN(C(=O)c1cc2c(C)ccc(C)c2n1Cc1cc(-c2ccc(Cl)s2)on1)C1CCN(C(C)C)CC1` [Example 224, [{1-[5-(5-Chloro-thiophen-2-yl)-isoxazol-3-ylmethyl]-4,7-dimethyl-1H-indole-2-carbonyl}-(1-isopropyl-piperidin-4-yl)-amino]-acetic acid ethyl ester]: the Ki is 21 nM.

In the case of `CCOC(=O)CN(C(=O)c1cc2c(OC)ccc(OC)c2n1Cc1cc(-c2ccc(Cl)s2)on1)C1CCN(C(C)C)CC1` [Example 225, [{1-[5-(5-Chloro-thiophen-2-yl)-isoxazol-3-ylmethyl]-4,7-dimethoxy-1H-indole-2-carbonyl}-(1-isopropyl-piperidin-4-yl)-amino]-acetic acid ethyl ester], the Ki was determined as 26 nM. On the same count and under the same terms, as for `CCOC(=O)CN(C(=O)c1cc2c(Cl)ccc(Cl)c2n1Cc1cc(-c2ccc(Cl)s2)on1)C1CCN(C(C)C)CC1` [Example 226, [{4,7-Dichloro-1-[5-(5-chloro-thiophen-2-yl)-isoxazol-3-ylmethyl]-1H-indole-2-carbonyl}-(1-isopropyl-piperidin-4-yl)-amino]-acetic acid ethyl ester], the figure is 83 nM. Same read-out and setting: the figure for `CCOC(=O)CN(C(=O)c1cc2cc(Cl)cc(Cl)c2n1Cc1cc(-c2ccc(Cl)s2)on1)C1CCN(C(C)C)CC1` [Example 227, [{5,7-Dichloro-1-[5-(5-chloro-thiophen-2-yl)-isoxazol-3-ylmethyl]-1H-indole-2-carbonyl}-(1-isopropyl-piperidin-4-yl)-amino]-acetic acid ethyl ester] is 88 nM. Same read-out and setting: the figure for `CCOC(=O)CN(C(=O)c1cc2c(Cl)cccc2n1Cc1cc(-c2ccc(Cl)s2)on1)C1CCN(C(C)C)CC1` [Example 228, [{4-Chloro-1-[5-(5-chloro-thiophen-2-yl)-isoxazol-3-ylmethyl]-1H-indole-2-carbonyl}-(1-isopropyl-piperidin-4-yl)-amino]-acetic acid ethyl ester] is 51 nM. As for `CC(C)N1CCC(N(CC(=O)O)C(=O)c2cc3c(C(F)(F)F)cccc3n2Cc2cc(-c3ccc(Cl)s3)on2)CC1` [Example 229, [{1-[5-(5-Chloro-thiophen-2-yl)-isoxazol-3-ylmethyl]-4-trifluoromethyl-1H-indole-2-carbonyl}-(1-isopropyl-piperidin-4-yl)-amino]-acetic acid], the Ki came out at 172 nM.

For the molecule `Cc1ccc(C)c2c1cc(C(=O)N(CC(=O)O)C1CCN(C(C)C)CC1)n2Cc1cc(-c2ccc(Cl)s2)on1` [Example 230, [{1-[5-(5-Chloro-thiophen-2-yl)-isoxazol-3-ylmethyl]-4,7-dimethyl-1H-indole-2-carbonyl}-(1-isopropyl-piperidin-4-yl)-amino]-acetic acid], the Ki turned out to be 12 nM. For `COc1ccc(OC)c2c1cc(C(=O)N(CC(=O)O)C1CCN(C(C)C)CC1)n2Cc1cc(-c2ccc(Cl)s2)on1` [Example 231, [{1-[5-(5-Chloro-thiophen-2-yl)-isoxazol-3-ylmethyl]-4,7-dimethoxy-1H-indole-2-carbonyl}-(1-isopropyl-piperidin-4-yl)-amino]-acetic acid], the Ki was 20 nM. The same measure, in the same setting: as for `CC(C)N1CCC(N(CC(=O)O)C(=O)c2cc3c(Cl)ccc(Cl)c3n2Cc2cc(-c3ccc(Cl)s3)on2)CC1` [Example 232, [{4,7-Dichloro-1-[5-(5-chloro-thiophen-2-yl)-isoxazol-3-ylmethyl]-1H-indole-2-carbonyl}-(1-isopropyl-piperidin-4-yl)-amino]-acetic acid], the figure is 55 nM; as for `CC(C)N1CCC(N(CC(=O)O)C(=O)c2cc3cc(Cl)cc(Cl)c3n2Cc2cc(-c3ccc(Cl)s3)on2)CC1` [Example 233, [{5,7-Dichloro-1-[5-(5-chloro-thiophen-2-yl)-isoxazol-3-ylmethyl]-1H-indole-2-carbonyl}-(1-isopropyl-piperidin-4-yl)-amino]-acetic acid], 74 nM; as for `CC(C)N1CCC(N(CC(=O)O)C(=O)c2cc3c(Cl)cccc3n2Cc2cc(-c3ccc(Cl)s3)on2)CC1` [Example 234, [{4-Chloro-1-[5-(5-chloro-thiophen-2-yl)-isoxazol-3-ylmethyl]-1H-indole-2-carbonyl}-(1-isopropyl-piperidin-4-yl)-amino]-acetic acid], 56 nM. Still for that read-out and setting: the figure for `CC(C)OC(=O)c1ccc2c(c1)cc(C(=O)NC1CCN(C(C)C)CC1)n2Cc1cc(-c2ccc(Cl)s2)on1` [Example 235, 1-[5-(5-Chloro-thiophen-2-yl)-isoxazol-3-ylmethyl]-2-(1-isopropyl-piperidin-4-ylcarbamoyl)-1H-indole-5-carboxylic acid isopropyl ester] is 42 nM; for `CC(C)N1CCC(NC(=O)c2cc3cc(C(=O)O)ccc3n2Cc2cc(-c3ccc(Cl)s3)on2)CC1` [Example 236, 1-[5-(5-Chloro-thiophen-2-yl)-isoxazol-3-ylmethyl]-2-(1-isopropyl-piperidin-4-ylcarbamoyl)-1H-indole-5-carboxylic acid] it is 10 nM. Same read-out and setting: the figure for `CC(C)N1CCC(NC(=O)c2cc3cc(CO)ccc3n2Cc2cc(-c3ccc(Cl)s3)on2)CC1` [Example 237, 1-[5-(5-Chloro-thiophen-2-yl)-isoxazol-3-ylmethyl]-5-hydroxymethyl-1H-indole-2-carboxylic acid (1-isopropyl-piperidin-4-yl)-amide] is 3 nM. For the molecule `CCOC(=O)c1ccc2c(c1)cc(C(=O)NC1CCN(C(C)C)CC1)n2Cc1cc(-c2ccc(Cl)s2)on1` [Example 238, 1-[5-(5-Chloro-thiophen-2-yl)-isoxazol-3-ylmethyl]-2-(1-isopropyl-piperidin-4-ylcarbamoyl)-1H-indole-5-carboxylic acid ethyl ester], the Ki came out at 11 nM. Take `COC(=O)c1ccc2c(c1)cc(C(=O)NC1CCN(C(C)C)CC1)n2Cc1cc(-c2ccc(Cl)s2)on1` [Example 239, 1-[5-(5-Chloro-thiophen-2-yl)-isoxazol-3-ylmethyl]-2-(1-isopropyl-piperidin-4-ylcarbamoyl)-1H-indole-5-carboxylic acid methyl ester]: the Ki amounted to 5 nM. As to `CC(C)N1CCC(NC(=O)c2cc3cc(C(=O)OCOC(=O)C(C)(C)C)ccc3n2Cc2cc(-c3ccc(Cl)s3)on2)CC1` [Example 240, 1-[5-(5-Chloro-thiophen-2-yl)-isoxazol-3-ylmethyl]-2-(1-isopropyl-piperidin-4-ylcarbamoyl)-1H-indole-5-carboxylic acid 2,2-dimethyl-propionyloxymethyl ester], the Ki worked out at 35 nM. As to `CC(C)N1CCC(NC(=O)c2cc3cc(C(=O)O)ccc3n2Cc2nnc(-c3ccc(Cl)s3)s2)CC1` [Example 242, 1-[5-(5-Chloro-thiophen-2-yl)-[1,3,4]thiadiazol-2-ylmethyl]-2-(1-isopropyl-piperidin-4-ylcarbamoyl)-1H-indole-5-carboxylic acid], the Ki came to 4 nM. On the same count and under the same terms, the figure for `CC(C)OC(=O)c1ccc2c(c1)cc(C(=O)NC1CCN(C(C)C)CC1)n2CC(=O)Nc1ccc(Cl)cc1` [Example 243, 1-[(4-Chloro-phenylcarbamoyl)-methyl]-2-(1-isopropyl-piperidin-4-ylcarbamoyl)-1H-indole-5-carboxylic acid isopropyl ester] is 10 nM.

Regarding `CC(C)N1CCC(NC(=O)c2cc3cc(C(=O)O)ccc3n2CC(=O)Nc2ccc(Cl)cc2)CC1` [Example 244, 1-[(4-Chloro-phenylcarbamoyl)-methyl]-2-(1-isopropyl-piperidin-4-ylcarbamoyl)-1H-indole-5-carboxylic acid], the Ki came to 4 nM.

As for `CC(C)N1CCC(NC(=O)c2cc3c(C(=O)O)cccc3n2Cc2cc(-c3ccc(Cl)s3)on2)CC1` [Example 246, 1-[5-(5-Chloro-thiophen-2-yl)-isoxazol-3-ylmethyl]-2-(1-isopropyl-piperidin-4-ylcarbamoyl)-1H-indole-4-carboxylic acid], the Ki was 4 nM. Still for that read-out and setting: as for `CC(C)N1CCC(NC(=O)c2cc3cc(C(N)=O)ccc3n2Cc2cc(-c3ccc(Cl)s3)on2)CC1` [Example 247, 1-[5-(5-Chloro-thiophen-2-yl)-isoxazol-3-ylmethyl]-1H-indole-2,5-dicarboxylic acid 5-amide 2-[(1-isopropyl-piperidin-4-yl)-amide]], the figure is 24 nM. On to `CC(C)N1CCC(NC(=O)c2cc3ccccc3n2CC(=O)Nc2ccc(Cl)cc2)CC1` [Example 248, 1-[(4-chloro-phenylcarbamoyl)-methyl]-1H-indole-2-carboxylic acid (1-isopropyl-piperidin-4-yl)-amide], for which the Ki under setting [1] worked out at 3 nM. With `CC(C)N1CCC(NC(=O)c2cc3ccccc3n2CC(=O)Nc2ccc(Cl)s2)CC1` [Example 249, 1-[(5-chloro-thiophen-2-ylcarbamoyl)-methyl]-1H-indole-2-carboxylic acid (1-isopropyl-piperidin-4-yl)-amide], under setting [1], the Ki was determined as 15 nM. For the molecule `CC(C)N1CCC(NC(=O)c2cc3ccccc3n2CC(=O)Nc2ccc(Cl)cc2F)CC1` [Example 250, 1-[(4-chloro-2-fluoro-phenylcarbamoyl)-methyl]-1H-indole-2-carboxylic acid (1-isopropyl-piperidin-4-yl)-amide], the Ki stood at 31 nM.

Regarding `O=C(Cn1c(C(=O)NCC2CCN(c3ccncc3)CC2)cc2ccccc21)Nc1ccc(Cl)cc1` [Example 252, 1-[(4-chloro-phenylcarbamoyl)-methyl]-1H-indole-2-carboxylic acid (3,4,5,6-tetrahydro-2H-[1,4′]bipyridinyl-4-ylmethyl)-amide], the Ki came out at 230 nM. In the case of `O=C(Cn1c(C(=O)NC2CCN(c3ccncc3)CC2)cc2ccccc21)Nc1ccc(Cl)cc1` [Example 253, 1-[(4-chloro-phenylcarbamoyl)-methyl]-1H-indole-2-carboxylic acid (3,4,5,6-tetrahydro-2H-[1,4′]bipyridinyl-4-yl)-amide], the Ki was 340 nM. Take `O=C(Cn1c(C(=O)N2CCC(Nc3ccncc3)CC2)cc2ccccc21)Nc1ccc(Cl)cc1` [Example 254, N-(4-chloro-phenyl)-2-{2-[4-(pyridin-4-ylamino)-piperidine-1-carbonyl]-indol-1-yl}-acetamide]: the Ki came to 223 nM.
